One experiment concerns the target T1, Mhp1 (Microbacterium maritypicum, UniProt D6R8X8).
T1 construct: gene hyuP; His-tagged (Ni-NTA, HisProbe blot), expressed in E. coli inner membranes, solubilized in DDM or trapped in A8-35
T1 sequence (D6R8X8 1-489): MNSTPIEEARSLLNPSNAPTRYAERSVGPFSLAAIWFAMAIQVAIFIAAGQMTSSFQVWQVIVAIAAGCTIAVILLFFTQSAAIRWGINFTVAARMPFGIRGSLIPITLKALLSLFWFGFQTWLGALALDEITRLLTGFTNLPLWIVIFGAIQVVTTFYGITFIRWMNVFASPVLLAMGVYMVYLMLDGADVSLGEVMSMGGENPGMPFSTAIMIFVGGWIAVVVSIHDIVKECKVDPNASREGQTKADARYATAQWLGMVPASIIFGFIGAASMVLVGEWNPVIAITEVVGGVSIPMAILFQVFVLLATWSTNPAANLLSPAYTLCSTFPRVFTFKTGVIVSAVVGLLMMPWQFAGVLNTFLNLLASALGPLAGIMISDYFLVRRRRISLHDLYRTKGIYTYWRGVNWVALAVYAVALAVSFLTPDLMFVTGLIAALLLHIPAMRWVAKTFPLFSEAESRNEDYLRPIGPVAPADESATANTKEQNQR
The experiment in a line: tryptophan fluorescence quenching titration. Type of experiment: binding. The procedure:
tryptophan fluorescence quenching titration on Mhp1 | The activity of Mhp1 was evaluated by monitoring binding to L-benzylhydantoin, a known ligand

The target in a further experiment is T2, GalP (Escherichia coli, UniProt P0AEP1).
T2 construct: His-tagged (Ni-NTA, HisProbe blot), expressed in E. coli inner membranes, solubilized in DDM or trapped in A8-35
T2 sequence (P0AEP1 1-464): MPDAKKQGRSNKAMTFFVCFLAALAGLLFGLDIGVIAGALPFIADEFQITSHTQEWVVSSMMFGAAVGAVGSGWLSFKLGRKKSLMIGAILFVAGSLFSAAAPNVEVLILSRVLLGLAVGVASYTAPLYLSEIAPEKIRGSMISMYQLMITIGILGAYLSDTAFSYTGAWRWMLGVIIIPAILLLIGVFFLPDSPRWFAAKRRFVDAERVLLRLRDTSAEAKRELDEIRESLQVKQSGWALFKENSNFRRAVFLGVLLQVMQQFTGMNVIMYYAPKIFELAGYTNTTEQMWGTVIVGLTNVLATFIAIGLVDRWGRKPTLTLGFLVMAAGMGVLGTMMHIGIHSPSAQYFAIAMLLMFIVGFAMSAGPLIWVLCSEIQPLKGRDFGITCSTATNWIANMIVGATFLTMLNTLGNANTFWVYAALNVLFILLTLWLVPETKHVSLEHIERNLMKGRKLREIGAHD
Nature of the experiment: tryptophan fluorescence quenching titration. The experiment is classed as binding. The protocol: tryptophan fluorescence quenching titration on GalP | GalP activity was assessed by monitoring binding to the small molecule inhibitor forskolin

Usually Kd stands for the constant that tells how readily two partners part at equilibrium. A lower Kd goes with a tighter complex.

As for `O=C1NC(=O)[C@H](Cc2ccccc2)N1` [L-benzylhydantoin], the Kd at Mhp1 is 17.6 ± 1.8 µM.
With `C=C[C@@]1(C)CC(=O)[C@]2(O)[C@@]3(C)[C@@H](O)CCC(C)(C)[C@@H]3[C@H](O)[C@H](OC(C)=O)[C@@]2(C)O1` [forskolin], the Kd on GalP is 63 ± 19 µM.
